Reference: patent publication US20260240820A1, “METHOD FOR CONTROLLING MEMBRANE POTENTIAL-DEPENDENT ION CHANNEL THROUGH TYPE I TASTE RECEPTORS (T1RS)” (ION CHAT RESEARCH CORPORATE, priority 2022, published 2026)
Entries after “also recorded” stand apart in the source; their conditions may differ. Read-outs that look alike come from different tables or passages of the source.

Experiments:
[1] = tested on: Nav1.5; test: Patch-clamp (voltage clamp) recording of VGSC current in HEK cells stably expressing Nav1.5
[2] = tested on: VGSC of SH-SY5Y cells (Nav1.7, Nav1.2, Nav1.3); test: Patch-clamp recording of VGSC current in differentiated SH-SY5Y cells; format: cell-based, human; conditions: 5 mM
[3] = tested on: voltage-dependent potassium channel current of SH-SY5Y cells; test: Voltage clamp recording of outward potassium current in SH-SY5Y cells; format: cell-based, human; conditions: 5 mM
Text: The inward current represents the transient peak observed immediately after stimulation, while the outward current measures the average value during the last 50 ms of rectangular pulse stimulation.

[4] = tested on: Kv1.2; test: Patch-clamp recording of Kv1.2 potassium current in HEK cells expressing Kv1.2; format: cell-based, human
Procedure: The effects of Aβ peptides or umami substances on sustained potassium currents (VGKC) in cardiac myocytes can be studied using HEK cells expressing VGKC (such as Kv1.2, Kv3.2, Kv3.3) as well as SH-SY5Y cells expressing endogenous T1R GPCRs. For instance, as shown in the implementation example in (FIG. 36B), Aβ peptides were applied to VGKC-expressing human cultured cells, and VGKC currents were recorded using ramp-like or rectangular voltage waveforms via the patch-clamp technique. This allowed measurement of the changes (inhibition) in VGKC currents caused by Aβ peptides. Similar inhibition studies on VGKC can be conducted using umami substance L-glutamate sodium (MSG) (FIG. 36A).
As shown in (FIG. 37), Aβ1-42 peptide, unlike Aβ25-35 targeting T1R3, interacts with T1R1 and inhibits VGSC currents (FIGS. 37D, E).

[5] = tested on: Nav1.5 in T1R1-silenced HEK cells; test: VGSC current in HEK Nav1.5 cells with silenced T1R1; format: cell-based, human; conditions: 5 mM for MSG2.5
[6] = tested on: HEK Nav1.5 cells; test: GFP-Tubulin / GFP-Actin cytoskeleton observation in HEK Nav1.5 cells; format: cell-based, human; conditions: MSG 5 mM
[7] = tested on: VGSC; test: Patch-clamp recording of VGSC current, cell type not specified or several cell types (summary statements); format: cell-based, human

With `N[C@@H](CCC(=O)O)C(=O)[O-].[Na+]` [MSG, monosodium glutamate] the “Inactivation process of transient VGSC current” value ([1]; 5 mM) was “significantly delayed; also recorded: This delay in inactivation speed more pronounced in Nav1.5 cells”, the “VGSC current suppressed by TBB” value ([1]; 10 mM, after CK2 inhibitor TBB) was “partially recovered from TBB suppression” and the “S-S curve shifted by TBB” value ([1]; after TBB) was “partially reversed the leftward shift caused by TBB”. For the same compound, the “Inactivation of VGSC current” value [2] was “delayed; also recorded: The inactivation speed of VGSC slows in 2 out of 3 SH-SY5Y cells”, the “Effect on outward potassium current” value [3] was “reduces the voltage-dependent potassium channel current; also recorded: decrease in outward currents” and the “Effect on voltage gated K+ channel (Kv1.2) current” value [4] was “Inhibition of Voltage gated”. For the same compound, the “Effect on VGSC currents in T1R1-silenced cells” value [5] was “MSG had no effect on VGSC enhancement in T1R1 silenced cells”, the “Microtubule fibrous structure (GFP-Tubulin)” value [6] was “disappearance of microtubule-like structures; also recorded: microtubule structure disappeared” and the “Effect on VGSC inactivation” value [7] was “delays the inactivation of VGSC”. For the same compound, the “Effects on VGSCs” value [7] was “Transient enhancement of VGSC; also recorded: Left shift of the I-V curve”, the “VGSC I-V curve” value ([7]; 5 mM) was 5 mM MSG shifts the VGSC I-V curve to a more hyperpolarized direction and the “Delay of VGSC inactivation” value ([7]; 10 mM) was “This delaying effect even more evident at 10 mM MSG”. For the same compound, the “Inactivation curve of VGSC shifted by dichlorprop” value ([7]; VGSC inhibited by more than 80% by dichlorprop) was “partially recovered”, the “Suppression / leftward S-S shift of VGSC caused by artificial sweeteners” value ([7]; cells pre-treated with aspartame or saccharin) was “partially reversed” and the “Effects on VGSCs” value ([7]; listed as L-Glu (MSG)) was “Delay in VGSC inactivation”.
